Measurements from patent US9884832B2 (priority 2011, dated 2018).
Where two headings read alike, the source gives them in different places.

Key:
[1] = biological target: AM2 S31N (serine→asparagine mutation at residue 31 in the M2 protein) (Influenza A virus, UniProt P0DOF5, S31N); format: cell-based, influenza virus A/Udorn/72
[2] = biological target: AM2 V27A (valine→alanine mutation at residue 27 in the M2 protein) (Influenza A virus, UniProt P0DOF5, V27A); format: cell-based, influenza virus A/Udorn/72

## CSc1ccc(CNC23CC4CC(CC(C4)C2)C3)cc1 [Example 23, Adamantan-1-yl-(4-methylsulfanyl-benzyl)-amine]
[1]; pH 5.5
  S31N OOcyte Inhibition at 100 uM (%): A (key: (A)=31-95%; (B)=0-30%)
[2]; pH 5.5
  V27A OOcyte Inhibition at 100 uM (%): B (key: (A)=31-95%; (B)=0-30%)

## c1coc(CNC23CC4CC(CC(C4)C2)C3)c1 [Example 69a, Adamantan-1-yl-furan-2-ylmethyl-amine]
[1]
  S31N OOcyte Inhibition at 100 uM (%): B (key: (A)=31-95%; (B)=0-30%)
[2]
  V27A OOcyte Inhibition at 100 uM (%): B (key: (A)=31-95%; (B)=0-30%)

## c1cnn(-c2ccc(CNC34CC5CC(CC(C5)C3)C4)cc2)c1 [Example 35, Adamantan-1-yl-(4-pyrazol-1-yl-benzyl)-amine]
[1]; pH 5.5
  S31N OOcyte Inhibition at 100 uM (%): B (key: (A)=31-95%; (B)=0-30%)
[2]; pH 5.5
  V27A OOcyte Inhibition at 100 uM (%): B (key: (A)=31-95%; (B)=0-30%)

## CC(=O)Oc1ccc(CNC23CC4CC(CC(C4)C2)C3)c(O)c1 [Example 60, Acetic acid 4-(adamantan-1-ylaminomethyl)-3-hydroxy-phenyl ester]
[1]; pH 5.5
  S31N OOcyte Inhibition at 100 uM (%): A (key: (A)=31-95%; (B)=0-30%)
[2]; pH 5.5
  V27A OOcyte Inhibition at 100 uM (%): B (key: (A)=31-95%; (B)=0-30%)

## COc1ccc(C(C)NC23CC4CC(CC(C4)C2)C3)cc1 (stereo not drawn) [Example 11a, N-(1-(4-methoxyphenyl)ethyl)adamantan-1-amine]
[1]
  S31N OOcyte Inhibition at 100 uM (%): A (key: (A)=31-95%; (B)=0-30%)
[2]
  V27A OOcyte Inhibition at 100 uM (%): A (key: (A)=31-95%; (B)=0-30%)

## CCc1ccc(CNC23CC4CC(CC(C4)C2)C3)s1 [Example 98a, N-((5-ethylthiophen-2-yl)methyl)adamantan-1-amine]
[1]
  S31N OOcyte Inhibition at 100 uM (%): A (key: (A)=31-95%; (B)=0-30%)
[2]
  V27A OOcyte Inhibition at 100 uM (%): B (key: (A)=31-95%; (B)=0-30%)

## FC(F)(F)Sc1ccc(CNC23CC4CC(CC(C4)C2)C3)cc1 [Example 26, Adamantan-1-yl-(4-trifluoromethylsulfanyl-benzyl)-amine]
[1]; pH 5.5
  S31N OOcyte Inhibition at 100 uM (%): A (key: (A)=31-95%; (B)=0-30%)
[2]; pH 5.5
  V27A OOcyte Inhibition at 100 uM (%): B (key: (A)=31-95%; (B)=0-30%)

## Oc1ccc(CNC23CC4CC(CC(C4)C2)C3)c(O)c1 [Example 46, 4-(Adamantan-1-ylaminomethyl)-benzene-1,3-diol]
[1]; pH 5.5
  S31N OOcyte Inhibition at 100 uM (%): A (key: (A)=31-95%; (B)=0-30%)
[2]; pH 5.5
  V27A OOcyte Inhibition at 100 uM (%): A (key: (A)=31-95%; (B)=0-30%)

## F[B-](F)(F)c1ccc(CNC23CC4CC(CC(C4)C2)C3)cc1.[K+] [Example 2a]
[1]
  S31N OOcyte Inhibition at 100 uM (%): B (key: (A)=31-95%; (B)=0-30%)
[2]
  V27A OOcyte Inhibition at 100 uM (%): A (key: (A)=31-95%; (B)=0-30%)

## c1coc(-c2ccc(CNC34CC5CC(CC(C5)C3)C4)s2)c1 [Example 136a, N-((5-(Furan-2-yl)thiophen-2-yl)methyl)adamantan-1-amine]
[1]
  S31N OOcyte Inhibition at 100 uM (%): A (key: (A)=31-95%; (B)=0-30%)
[2]
  V27A OOcyte Inhibition at 100 uM (%): B (key: (A)=31-95%; (B)=0-30%)

## Oc1cc(-c2ccccc2)ccc1CNC12CC3CC(CC(C3)C1)C2 [Example 47a, 4-(Adamantan-1-ylaminomethyl)-biphenyl-3-ol]
[1]
  S31N OOcyte Inhibition at 100 uM (%): A (key: (A)=31-95%; (B)=0-30%)
[2]
  V27A OOcyte Inhibition at 100 uM (%): B (key: (A)=31-95%; (B)=0-30%)

## Oc1cccc2ccc(CNC34CC5CC(CC(C5)C3)C4)nc12 [Example 65a, 2-((adamantan-1-ylamino)methyl)quinolin-8-ol]
[1]
  S31N OOcyte Inhibition at 100 uM (%): B (key: (A)=31-95%; (B)=0-30%)
[2]
  V27A OOcyte Inhibition at 100 uM (%): B (key: (A)=31-95%; (B)=0-30%)

## Cn1c(CNC23CC4CC(CC(C4)C2)C3)cc2sccc21 [Example 172a, Adamantan-1-yl-(4-methyl-4H-thieno[3,2-b]pyrrol-5-ylmethyl)-amine]
[1]
  S31N OOcyte Inhibition at 100 uM (%): B (key: (A)=31-95%; (B)=0-30%)
[2]
  V27A OOcyte Inhibition at 100 uM (%): B (key: (A)=31-95%; (B)=0-30%)

## O=C(Oc1ccc(CNC23CC4CC(CC(C4)C2)C3)cc1)c1cccs1 [Example 37, Thiophene-2-carboxylic acid 4-(adamantan-1-ylaminomethyl)-phenyl ester]
[1]; pH 5.5
  S31N OOcyte Inhibition at 100 uM (%): A (key: (A)=31-95%; (B)=0-30%)
[2]; pH 5.5
  V27A OOcyte Inhibition at 100 uM (%): B (key: (A)=31-95%; (B)=0-30%)

## Oc1cc(-c2cc3ccccc3o2)ccc1CNC12CC3CC(CC(C3)C1)C2 [Example 48a]
[1]
  S31N OOcyte Inhibition at 100 uM (%): B (key: (A)=31-95%; (B)=0-30%)
[2]
  V27A OOcyte Inhibition at 100 uM (%): B (key: (A)=31-95%; (B)=0-30%)
